Key:
[1] = laxative effect in the test animals; parameters: species or system Wistar rats; settings: in vivo
Protocol: (§1) Four week old male Wistar rats, divided into a control group and three test groups, consisting of 12 rats in each group, were held at a controlled temperature (27±2° C.) and 12:12 hrs light cycle. The animals had free access to food and water. The animals were weighed once a week and their weight gain was calculated. The control group was fed four weeks with a control (basal) diet and the test group was fed four weeks with the PDX-Polyol-diet, which consisted the control (basal) diet supplemented by an immunostimulating amount of polydextrose, and polyol as described in more detail below.
(§2) The in vivo test of Example 2 and the in vitro fermentation of Example 3 were repeated and the level of tyramine was measured.

biogenic amines = biogenic amines from caecal digesta of rats (HPLC, dansyl derivatives); format: in vivo, Wistar rats; settings: rat caecal digesta, Example 3
Protocol: as §1, with “(27+2°” for “(27±2°”
The control diet was the same diet as defined in Example 1. and the PDX-Polyol-diet was the same as defined in Example 2.
The digesta samples from caecum and colon were divided into pools (3 animals per pool) for the analysis of biogenic amines. The samples were stored in −20° C. until analysed. PH was measured from the caecum in situ.
Biogenic amines were determined from caecal digesta samples. […] The derivatives were separated on a C18 reversed phase column using mixture of ammonium acetate and acetonitrile as eluent, and detected with fluorescence detector.
as §2

human fecal samples = assay: 24 h batch fermentation with human fecal samples: production of SCFA; format: cell-based; settings: 1% of each substance, 37° C., pH 6.9, anaerobic
Protocol: The test was based on a 24 h fermentation experiment performed with human fecal samples. Fecal samples were incubated in 24-hour batch cultures at 37° C. at pH 6.9 under anaerobic conditions containing a buffer medium (mineral salt, trace elements, vitamines). The medium was supplemented with 10% extract of caecal digesta from pig. Polydextrose, polyols and their combinations were added at the level of 1% each into the test cultures.

Molecule	laxative effect [1]	amount of tyramine compared to a control diet (biogenic amines)	2-metbutyric acid, production of SCFA (%) after 24 h fermentation (human fecal samples) [%]	Acetic acid, production of SCFA (%) after 24 h fermentation (human fecal samples) [%]	Butyric acid, production of SCFA (%) after 24 h fermentation (human fecal samples) [%]	Isobutyric acid, production of SCFA (%) after 24 h fermentation (human fecal samples) [%]	Isovaleric acid, production of SCFA (%) after 24 h fermentation (human fecal samples) [%]	Propionic acid, production of SCFA (%) after 24 h fermentation (human fecal samples) [%]	Total SCFA after 24 h fermentation (human fecal samples) [mmol/L]	Valeric acid, production of SCFA (%) after 24 h fermentation (human fecal samples) [%]
OC[C@@H](O)[C@@H](O[C@@H]1O[C@H](CO)[C@H](O)[C@H](O)[C@H]1O)[C@H](O)[C@@H](O)CO [Lactitol, lactitol]	laxative effect	reduced	0.2	66.2	31.1	0.4	0.2	9.3	153.6	0.9
OC[C@@H](O)[C@@H](O[C@H]1O[C@H](CO)[C@@H](O)[C@H](O)[C@H]1O)[C@H](O)[C@@H](O)CO [Maltitol, maltitol]	–	–	0.2	57.9	21.3	0.4	0.2	12.1	157.0	1.2
OC[C@@H](O)[C@@H](O)[C@H](O)[C@@H](O)CO [Sorbitol, sorbitol]	–	–	0.2	55.2	38.6	0.5	0.3	11.4	122.4	1.4
OC[C@@H](O)[C@H](O)[C@@H](O)CO [Xylitol, xylitol]	–	–	0.3	45.8	27.9	0.6	0.3	12.6	191.6	1.9
isomalt	–	–	0.2	64.0	–	0.4	0.2	12.8	158.6	1.2
